These results are taken from patent US8957190B2, “Use of heat-resistant biotin-binding protein, and solid support having the protein attached thereto” (Japan Tobacco Inc., priority 2006, dated 2015).

For series [1] the following is noted: background art; cited from earlier work.
A short description of series [2]: Activity measurement by means of fluorescent biotin (method of Kada et al.). Type of series: binding. The note with it: room temperature, 10 minutes. The procedure:
By means of fluorescent biotin, tamavidin 2 was measured for its biotin-binding activity according to the method of Kada et al. (Biochim. Biophys. Acta., 1427: 44-48, (1999)). Solutions were prepared to contain the purified TM2 at stepwise concentrations from 0 pmol to 486 pmol in 200 μl assay buffer (50 mM NaH2PO4, 100 mM NaCl, 1 mM EDTA (pH 7.5)). These solutions were each mixed with 50 μL (1 nmol) of a 20 pmol/μL fluorescent biotin solution (biotin-4-fluorescein; Molecular Probe) and allowed to stand at room temperature for 10 minutes, followed by measuring the fluorescence intensity with a Las-3000 system (FUJIFILM). As a result, 0.274 nmol of TM2 was bound to nmol of fluorescent biotin. Namely, 3.6 mol of fluorescent biotin was bound to 1 mol of tamavidin. […] In the case of streptavidin, 3.4 mol of fluorescent biotin was bound per mol of streptavidin.

Series [3] can be described thus: Kinetic analysis of tamavidin 2-biotin interaction using a Biacore 3000 biosensor (surface plasmon resonance). Type of series: binding. Conditions: Biacore 3000, 25° C. The procedure: Kinetic Analysis of Tamavidin 2 (TM2)-Biotin Interaction Using a Biacore Biosensor
Highly-purified BSA (2 mg, Sigma) and NHS-biotin (1 mg, Pierce) were dissolved in 1 ml of 50 mM sodium borate pH 8.0 and incubated at 4° C. for 2 hours. The NHS-biotin (EZ-Link NHS-LC-LC-Biotin) had been dissolved in a small volume of DMSO before addition. This solution was introduced into a dialysis tube (MWCO 6-8,000) and dialyzed overnight at 4° C. against 50 mM sodium carbonate pH 6.7. The biotin-BSA conjugate thus prepared (MW 67 kDa, 30 μM) was used as a ligand (a substance immobilized on a sensor chip) for a Biacore® biosensor. On the other hand, recombinant tamavidin 2 was prepared as an analyte (a substance flowing through channels) and analyzed for intermolecular interactions using a Biacore® 3000 (a biosensor designed on the principle of surface plasmon resonance, Biacore Inc.). Biotin-BSA and BSA alone (serving as a negative control) were each immobilized on CM5 sensor chips by amine coupling techniques. Their immobilized amount was adjusted to around 200 RU. BSA-immobilized chips were placed in flow cells 1 and 3, while biotin-BSA-immobilized chips were placed in flow cells 2 and 4. Tamavidin 2 was loaded into flow cells 1 and 2, while streptavidin was loaded into flow cells 3 and 4, each being loaded at a flow rate of 20 μl/min for 2 minutes in running buffer [10 mM HEPES pH 7.4, 150 mM NaCl, 3 mM EDTA, 0.005% Surfactant 20 (Biacore Inc.)]. The samples were then monitored for their dissociation over 60 minutes. […] The dissociation constant (Kd) was determined from kd/ka.
It should be noted that when the regeneration step was skipped, Rmax (the maximum binding amount of an analyte) was reduced ever time the measurement at each concentration was made. For this reason, Rmax was calculated by local fitting for each concentration during analysis. […]
On the technique in general: SPR reads the build-up and loss of mass on a sensor chip optically.

Series [4] in a line: Heat resistance: protein stability (heating, SDS-PAGE band quantification). Type of series: physicochemical. Conditions: heated 20 minutes, soluble protein, SDS-PAGE, no biotin. As for the experimental part: (§1) 0.2 μg/μL TM2 and 0.2 μg/μL streptavidin were heated in 10 μL (2 μg) volumes at room temperature, 50° C., 60° C., 70° C., 80° C., 90° C. or 99° C. for 20 minutes, followed by centrifugation at 15000 rpm for 10 minutes. Each supernatant (soluble protein) was suspended in an equal volume of 2×SDS sample buffer (100 mM Tris-HCl pH 6.8, 12% 2-mercaptoethanol, 2% SDS, 20% glycerol), heated at 95° C. for 10 minutes and then analyzed by SDS-PAGE. Protein bands were detected by CBB staining. Using a Las-3000 system (FUJIFILM), a calibration curve was prepared based on quantification markers (LMW ELECTROPHORESIS CALIBRATION KIT; Pharmacia Biotech) and used to quantify the protein bands. […]
as §1, with “Purified tamavidin 1 at a concentration of 0.2” for “0.2”, “was” for “TM2 and 0.2 μg/μL streptavidin were”

Series [5] concerns salmon sperm DNA. The series is described as follows: Test for non-specific binding to DNA (slot blot, antibody detection). Conditions: 25 μg/mL protein, salmon sperm DNA 10 μg to 0.3 μg on membrane. As for the experimental part: TM2 was analyzed for its non-specific binding to DNA. Serial dilutions of salmon sperm DNA (10 μg to 0.3 μg) in 2×SSC buffer were alkali-denatured and adsorbed onto a Hybond N+ membrane (Amersham Biosciences) using Bio-Dot SF (BIO-RAD). The membrane was blocked with 5×Denhardt's solution (0.1% BSA, 0.1% Ficoll, 0, 1% polyvinylpyrrolidone) and then immersed in a 25 μg/mL TM2, streptavidin or avidin solution at room temperature for 90 minutes. The membrane was then washed three times with TTBS buffer (TBS buffer containing 0.05% Tween 20) at room temperature for 5 minutes. The membrane was blocked with TBS buffer containing 0.5% skimmed milk and 0.01% Tween 20 for 1 hour. The primary antibodies used were rabbit anti-TM2 antibody (purified as described above) for TM2, rabbit anti-streptavidin antibody (SIGMA) for streptavidin, and rabbit anti-avidin antibody (Abcam) for avidin, which were diluted to give the same antibody titer before use. Antigen-antibody reaction with each primary antibody was performed overnight at room temperature. […] The membrane was washed three times with TTBS buffer at room temperature for 5 minutes, and then developed with an Alkaline Phosphatase substrate kit II, vector Black (Funakoshi Co., Ltd., Japan), followed by quantification with a Las-3000 system (FUJIFILM).

A short description of series [6]: Heat resistance: fluorescent biotin-binding activity of heated biotin-binding proteins. The note with it: for temperature which caused a 50% reduction in fluorescence intensity decrement compared to the unheated sample: free protein, heated 20 minutes; for reduction of binding activity to fluorescent biotin: 20 minutes. The procedure: Based on the property of fluorescent biotin to lose its fluorescence intensity when bound to a biotin-binding site in a biotin-binding protein, tamavidin 2 was compared with streptavidin and avidin for biotin-binding capacity under high temperature conditions.
About 0.25 μg/μL TM2 and streptavidin were heated at room temperature, 50° C., 60° C., 70° C., 80° C. or 90° C. for 20 minutes. Solutions were prepared to contain the heat-treated TM2 or streptavidin at stepwise concentrations from 0 μL to 27 μL in 150 μL assay buffer (50 mM NaH2PO4, 100 mM NaCl, 1 mM EDTA (pH 7.5)). These solutions were each mixed with 50 μL (250 pmol) of a 5 pmol/μL fluorescent biotin solution (biotin-4-fluorescein; Molecular Probe) and allowed to stand at room temperature for 20 minutes, followed by measuring the fluorescence intensity with a Las-3000 system (FUJIFILM).
Heat resistance test on the biotin-binding proteins was accomplished as follows. About 0.25 μg/μL biotin-binding protein was heated at room temperature, 50° C., 60° C., 70° C., 80° C. or 90° C. for 20 minutes. Solutions were prepared to contain the heated biotin-binding protein at stepwise concentrations from 0 μL to 12 μL in 150 μL assay buffer. These solutions were each mixed with 50 μL (100 pmol) of a 2 pmol/μL fluorescent biotin solution and allowed to stand at room temperature for 20 minutes, followed by measuring the fluorescence intensity at Ex=460 nm and Em=525 nm with an Infinite M200 (TECAN).

[7] abbreviates: 1:1 binding model, biotin-BSA ligand.

Take “Streptavidin: biotin-binding protein derived from an actinomycete strain (Streptomyces avidinii) [reference compound]”: the isoelectric point entry in series [1] is reported as “around neutral pH”. For the same substance, in series [2], the “fluorescent biotin bound per mol of protein” value turned out to be 3.4 mol. Moreover, in series [3] (setting [7]), the “Association rate constant ks” value amounted to 2.28e+06 M⁻¹ s⁻¹ and the “Dissociation rate constant kd” value amounted to 2.52e-06 s⁻¹. In addition, the Kd in series [3] (determined from kd/ka, read-out: Dissociation constant Kd) was determined as 1.11 pM. Besides, in series [4], the “temperature which caused a 50% reduction in protein band intensity” value came out at 71 °C. Also, the “non-specific binding to DNA (staining intensity versus DNA concentration)” value in series [5] is on record as “not strongly affected by DNA concentration”. The “temperature which caused a 50% reduction in fluorescence intensity decrement compared to the unheated sample” value in series [6] stood at 73 °C. Further, the “reduction of binding activity to fluorescent biotin” value (from here on “reduction of binding activity”) in series [6] (heated at 70° C.) was found to be 40%. Besides, the “reduction of binding activity” value in series [6] (heated at 80° C.) amounted to 80%.
In the case of “avidin: albumen-derived basic glycoprotein binding biotin”, in series [1], the isoelectric point entry was “exceeding 10”. For the same substance, the “non-specific binding to DNA (staining intensity versus DNA concentration)” value in series [5] is recorded as “DNA concentration-dependent increase in its staining intensity”. The “temperature which caused a 50% reduction in fluorescence intensity decrement compared to the unheated sample” value in series [6] was found to be 78 °C. In addition, the “reduction of binding activity” value came out at 10% in series [6] (heated at 70° C.) and 70% in series [6] (heated at 80° C.).

The Kd is the concentration at which binding is half-saturated.
